Laboratory results reported in patent US9155784B2, “Anti-TNF-α therapy for the mucopolysaccharidoses and other lysosomal disorders” (Icahn School of Medicine at Mount Sinai, priority 2011, dated 2015).

Legend:
MPS VI rats [1] = test: Skull and snout appearance, radiographs and microCT in PPS treated MPS VI rats; type: in vivo, rat
Method: FIGS. 6A-6D show results of MPS VI rats treated with PPS. MPS VI rats were maintained on normal watering (FIG. 6A) or with water containing 25 mg/day PPS (n=6/group) (FIG. 6B). Animals were 6 months of age when treatment began, and treatment was carried out for 3 months. Skull and snout images were taken at the end of treatment. Representative images are shown. Skull length and width measurements also were determined from the radiographs for each of the animals, and the data are shown in the bar graph (FIGS. 6C, 6D). White=normal 9 month old, Gray=MPS VI rats on normal water; Blue=MPS VI rats receiving PPS. *=p<0.01.
FIGS. 7A-7F show skull radiographs (FIGS. 7A, 7B, 7C) and microCT images (FIGS. 7D, 7E, 7F) of normal rats (FIGS. 7A, 7D), MPS VI rats with PPS treatment (FIGS. 7C, 7F), and MPS VI rats without PPS treatment (FIGS. 7B, 7E). MPS VI rats were maintained on normal watering or with water containing 25 mg/day PPS (n=6/group). Animals were 6 months of age when treatment was begun, and treatment was carried out for 3 months. The top images show radiographs (FIGS. 7A, 7B, 7C), and the bottom images microCT images (FIGS. 7D, 7E, 7F). Longer snouts and thinner skulls were found in the MPS VI rats treated with PPS compared to untreated MPS VI. The lines in the radiographs are for reference. The quantitative data shown in FIGS. 6A-6D on skull length and width were measured from these radiographs.
In order to develop “proof-of-principle” data, six MPS VI rats at 6 months of age were treated with PPS for 3 months. 6-month-old MPS VI rats have established bone, cartilage, and inflammatory disease, and the specific goal in this initial study was therefore to evaluate whether PPS could either slow or reverse any of the clinical or pathological findings in MPS animals with advanced disease. […] As illustrated by FIGS. 7A-7F skull radiographs and microCT images were taken of normal rats (FIGS. 7A, 7D), MPS VI rats with PPS treatment (FIGS. 7C, 7F), and MPS VI rats without PPS treatment (FIGS. 7B, 7E). […] The images shown are representative of the general observations on these animals.

MPS VI rats [2] = test: MicroCT of dentition in PPS treated MPS VI rats; type: in vivo, rat; details: PPS 25 mg/day, start at 6 months of age, 3 months
Method: FIGS. 8A-8F show microCT images of normal rats (FIGS. 8A, 8B) MPS VI rats with PPS treatment (FIGS. 8E, 8F) and without PPS treatment (FIGS. 8C, 8D) showing dentition changes. MPS VI rats were maintained on normal watering or with water containing 25 mg/day PPS (n=6/group). Animals were 6 months of age when treatment was begun, and treatment was carried out for 3 months. Untreated MPS VI rats have overgrown incisors (box) that leads to abnormal alignment of the teeth compared to normal rats. The mandible and misalignment were corrected by PPS treatment.
Untreated MPS VI rats have overgrown incisors (box) (FIGS. 8C, 8D) that leads to abnormal alignment of the teeth compared to normal rats. The mandible and misalignment were corrected by PPS treatment (FIGS. 8E, 8F).

MPS VI rats [3] = test: Accelerating rotarod of PPS treated MPS VI rats; type: in vivo, rat
Method: FIG. 9 depicts rotarod analysis of MPS VI rats with and without PPS. Six-month-old MPS VI rats were maintained with or without PPS for 3 months (n=6/group), and prior to sacrifice were analyzed using an accelerating rotarod apparatus. Gray=MPS VI rats on normal water; Blue=MPS VI rats receiving PPS.
FIGS. 12A-12C show results of treatment of MPS VI rats at one month of age. In FIGS. 12A and 12B, one-month old MPS VI rats were maintained for eight months on normal water or with water containing 25 mg/day PPS (n=6/group). Representative images are shown. Arrows indicate ocular porphyrin secretions, wide broad skull and snout and small ears in the untreated, with marked improvement in the treated animal. In FIG. 12C, animals were tested on an accelerating rotarod apparatus. […] In addition, only normal and treated rats were able to remain on the rotating rod at speeds up to 35 RPM (60% of normal).
(§1) Immediately prior to sacrifice, the animals also were studied using an accelerating rotarod apparatus. […] It was hypothesized that this reflects either increased joint mobility and/or reduced inflammation and pain in the treatment group. […] Serum levels of inflammatory marker MIP-1α is shown in FIG. 11A, while levels of marker Rantes is show in FIG. 11B and levels of TNF-α are shown in FIG. 11C.

TNF-α = test: Immunohistochemical analysis of TNF-α in liver and spleen of PPS treated MPS VI rats; type: in vivo, rat; details: PPS start at 6 months, 9-month-old animals, vs untreated
Description: (§2) FIGS. 10A-10B illustrate immunohistochemical analysis of PPS treated and untreated rats.
as §1

MIP-1α, Rantes, TNF-α = test: Serum inflammatory markers by ELISA in PPS treated MPS VI rats; type: in vivo, rat
Method: as §2
FIGS. 11A-11C show serum inflammatory markers in treated and untreated MPS VI rats. Three groups of MPS VI rats were treated with PPS beginning at six months (light gray), one month (dark gray) or prenatally (black). All animals were sacrificed at 9 months of age. The duration of treatment was therefore 3 months, 8 months or 9.75 months, respectively. The serum levels of several inflammatory markers were measured by ELISA assays, and compared to normal (hatched) or untreated MPS VI animals (white). N=6/group. Serum levels of inflammatory marker MIP-1α is shown in FIG. 11A, while levels of marker Rantes is shown in FIG. 11B and levels of TNF-α are shown in FIG. 11C.
as §1

MPS VI rats [4] = test: Tracheas of MPS VI rats treated with PPS; type: in vivo, rat; details: all PPS treatment groups (start 6 months, 1 month, prenatally), sacrificed at 9 months
Method: FIG. 13 illustrates tracheas of MPS VI rats treated with PPS. Groups 1, 2 and 3 animals were treated with PPS beginning at 6 months, 1 month, and prenatally. They were sacrificed at 9 months and the tracheas were isolated.

MPS VI rats [5] = test: Spine disease: disc height index from sagittal radiographs, PPS treated MPS VI rats; type: in vivo, rat; details: PPS treatment of skeletally mature animals (6 months of age)
Method: FIGS. 14A-14C show an assessment of spine disease in the treated (6 month old) and untreated MPS VI rats.
Lastly, spine disease in the treated (6 month old) and untreated MPS VI rats was assessed. These studies have documented several important and clinically relevant endpoints that can be followed during PPS treatment. Histologically, MPS VI discs had abundant, enlarged vacuolated nuclear and annular cells as well as thickened annulus layers, focal defects in the nucleus pulposus, and increased disc height as compared to control discs (FIG. 14A). […] ADAMTS-5 is a proteoglycan-degrading aggrecanase that also is elevated in untreated MPS VI rat chondrocytes, but was reduced in the MPS VI treatment groups (FIG. 15).

articular chondrocytes = test: Western blotting of articular chondrocytes from PPS treated MPS VI rats; type: in vivo, rat; details: western blot, PPS groups 1-3, sacrificed at 9 months
Method: Groups 1, 2 and 3 animals were treated with PPS beginning at 6 months, 1 month and prenatally. They were sacrificed at 9 months and articular chondrocytes were isolated and grown for 3 weeks. They were then analyzed by western blotting. […] ADAMTS-5 is a proteeoglycan-degrading aggrecanase that also is elevated in untreated MPS VI rat chondrocytes, and was reduced in the MPS VI treatment groups.

[6] = system: Niemann-Pick disease mice (acid sphingomyelinase knock-out); test: Rotarod analysis of Niemann-Pick disease mice treated with PPS; type: in vivo, mouse; details: 25 mg/kg/day for three months from one month of age; 20 RPM; p<0.01; remained below wild-type
Method: One-month-old Niemann-Pick disease mice (acid sphingomyelinase knock-out) were treated with PPS for three months beginning at one month of age (25 mg/kg/day). They were then analyzed using an accelerating rotarod apparatus set to 20 RPM.

[7] = PPS 25 mg/day in water, start at 6 months of age, 3 months, vs untreated MPS VI
[8] = all treatment groups (start 6 months, 1 month or prenatally), sacrificed at 9 months, vs untreated

Substance: Pentosan polysulfate [PPS]
- skull length (MPS VI rats [1]; [7]): significantly longer
- skull width (MPS VI rats [1]; [7]): thinner
- snout length (MPS VI rats [1]; [7]): significantly longer
- facial appearance, skull length, eye and nasal secretions, and motility (MPS VI rats [1]; PPS start at 1 month of age, 8 months): significant effect
- ocular porphyrin secretions (MPS VI rats [1]; PPS start at 6 months of age, 3 months, vs untreated MPS VI): markedly fewer
- mandible and misalignment of the teeth (MPS VI rats [2]): corrected
- time on the rotating rod versus untreated (MPS VI rats [3]; PPS start at 1 month of age, 8 months, 20 RPM): more than twice as long
- rotarod performance at speeds up to 35 RPM (MPS VI rats [3]; PPS start at 1 month of age, 8 months, untreated unable to remain): 60 % of normal
- time on the rotating rod versus untreated (MPS VI rats [3]; PPS start at 6 months of age, 3 months, p<0.02): more than twice as long
- TNF-α expression in liver and spleen (TNF-α): decreased
- serum TNF levels (MIP-1α, Rantes, TNF-α; PPS start at 6 months, 9-month-old animals, vs untreated (FIG. 10B)): decreased
- serum MIP-1α level (MIP-1α, Rantes, TNF-α; [8]): significantly (<0.001) lower
- serum Rantes level (MIP-1α, Rantes, TNF-α; [8]): significantly (<0.001) lower
- serum TNF-α level (MIP-1α, Rantes, TNF-α; [8]): significantly (<0.001) lower
- collapsed tracheas (MPS VI rats [4]): improved
- disc height index (DHI) (MPS VI rats [5]): did not influence
- ADAMTS-5 in articular chondrocytes (articular chondrocytes): reduced
- Cox-2 in articular chondrocytes (articular chondrocytes): reduced to normal
- TNF-α in articular chondrocytes (articular chondrocytes): reduced to normal
- p38 in articular chondrocytes (articular chondrocytes): reduced to normal
- rotarod performance versus untreated NPD mice [6]: significantly better
